Measurements as given in patent US10676429B2, “Sulfamoyl-arylamides and the use thereof as medicaments for the treatment of hepatitis B” (priority 2012, dated 2020).

Legend:
HBV [1] = experiment: Anti-HBV activity in stable transfected HepG2.2.15 cell line (HBV DNA from secreted virions, realtime PCR); type: cell-based; settings: HepG2.2.15 cells, 6 days of treatment, secreted virion HBV DNA, read-out: HepG2 2.15 EC50
[2] = Cytotoxicity in HepG2 cells using CellTiter-Blue (6 days); settings: human
HBV [3] = experiment: Anti-HBV activity in HepG2.117 cell line (Tet-off, intracellular HBV DNA, realtime PCR); type: cell-based; settings: HepG2.117 cells, 3 days of treatment, intracellular HBV DNA, read-out: HepG2 117 EC50
[4] = Cytotoxicity in HepG2 cells, 4 days, Resazurin assay; settings: human, HepG2 cells
HepG2 cells = experiment: as above; settings: read-out: HepG2 4 days CC50; HepG2 cells, 4 days, Resazurin
[5] = Hepatitis B virus, HepG2.2.15, 144 h
[6] = Hepatitis B virus, HepG2.117, 72 h

Compound | EC50 (HBV [1]; [5]) [µM] | CC50 at 6 days [2] [µM] | EC50 (HBV [3]; [6]) [µM] | CC50 at 4 days [4] [µM] | EC50 (HBV [1]) [µM] | EC50 (HBV [3]) [µM] | CC50 (HepG2 cells) [µM]
O=C(Nc1cccc(F)c1)c1cc(S(=O)(=O)N2CCCC2)c(Cl)cc1Cl [Compound 24] | 0.79 | > 25 |  |  |  |  | 
Cc1cccc(NC(=O)c2cc(S(=O)(=O)N3CCOCC3)ccc2Cl)c1 [Compound 27] | 1.13 | > 25 |  |  |  |  | 
O=C(Nc1ccc(Br)cc1)c1ccc(Cl)c(S(=O)(=O)N2CCCCCC2)c1 [Compound 30] | 1.67 | > 25 |  |  |  |  | 
O=C(Nc1ccccc1)c1cc(S(=O)(=O)NCc2ccccc2)ccc1Cl [Compound 25] | 0.8 | > 25 | 1.02 | > 6.25 |  |  | 
O=C(Nc1ccccc1Cl)c1cc(S(=O)(=O)NC2CCCCC2)ccc1F [Compound 42] | 11.6 | 37.2 | > 25 |  |  |  | 
COc1ccc(NC(=O)c2ccc(Cl)c(S(=O)(=O)N3CCCCCC3)c2)cc1 [Compound 32] | 2.59 | 9.9 | 4.58 | > 25 |  |  | 
Cc1cccc(NC(=O)c2cc(S(=O)(=O)N3CCCCC3)ccc2Cl)c1 [Compound 22] | 0.52 | > 25 |  |  |  |  | 
Cc1cc(NC(=O)c2cccc(S(=O)(=O)NC3CCC(O)C3)c2)ccc1F (single isomer, unassigned) [Compound 145b, N-(4-fluoro-3-methyl-phenyl)-3-[[(1R,3S)-3-hydroxycyclopentyl]sulfamoyl]benzamide or N-(4-fluoro-3-methyl-phenyl)-3-[[(1S,3R)-3-hydroxycyclopentyl]sulfamoyl]benzamide] |  |  |  |  | 0.44 | 0.58 | > 25
O=C(Nc1ccc(F)cc1)c1cc(S(=O)(=O)N2CCOCC2)ccc1Cl [Compound 29] | 1.39 | > 25 |  |  |  |  | 
Cc1cc(NC(=O)c2cccc(S(=O)(=O)NC3CCC(O)C3)c2)ccc1F (single isomer, unassigned) [Compound 145c, N-(4-fluoro-3-methyl-phenyl)-3-[[(1S,3S)-3-hydroxycyclopentyl]-sulfamoyl]benzamide or N-(4-fluoro-3-methyl-phenyl)-3-[[(1R,3R)-3-hydroxycyclopentyl]sulfamoyl]benzamide] |  |  |  |  | 0.34 | 0.34 | > 25
CN(C1CCCC1)S(=O)(=O)c1cccc(C(=O)Nc2ccc(F)cc2)c1 [Compound 46] | 2.61 |  | 11.1 |  |  |  | 23.8
O=C(Nc1ccc(F)cc1)c1cccc(S(=O)(=O)N[C@H]2CCOC2)c1 [Compound 9] | 0.54 |  | 1.36 |  |  |  | > 100
O=C(Nc1ccc(Cl)cc1)c1cc(S(=O)(=O)NC2CCCCC2)ccc1F [Compound 38] | < 6.25 | 18.4 | 15.5 | 22.1 |  |  | 
O=C(Nc1ccccc1Cl)c1ccc(Cl)c(S(=O)(=O)N2CCCCCC2)c1 [Compound 33] | 3.56 | > 25 |  |  |  |  | 
CC(C)(C)NS(=O)(=O)c1cccc(C(=O)Nc2ccc(F)cc2)c1 [Compound 28] | 1.24 |  | 2.28 |  |  |  | 52.5
COc1cc(NC(=O)c2cccc(S(=O)(=O)N[C@H]3CCOC3)c2)ccc1F [Compound 103] | 2.33 |  | 2.66 |  |  |  | > 25
O=C(Nc1cccc(Cl)c1)c1cc(S(=O)(=O)NC2CCCCC2)ccc1F [Compound 43] | 15.1 | 36.3 | > 25 | > 25 |  |  | 
CN1CCN(S(=O)(=O)c2cccc(C(=O)Nc3ccc(F)cc3)c2)CC1 [Compound 44] | 26.5 |  | 11.1 |  |  |  | > 100
Cc1cc(NC(=O)c2cccc(S(=O)(=O)NC3Cc4ccccc4C3O)c2)ccc1F (single isomer, unassigned) [Compound 141b, N-(4-fluoro-3-methyl-phenyl)-3-[[(1R,2S)-1-hydroxyindan-2-yl]sulfamoyl]benzamide or N-(4-fluoro-3-methyl-phenyl)-3-[[(1S,2R)-1-hydroxyindan-2-yl]sulfamoyl]benzamide] |  |  |  |  | 0.27 | 0.23 | > 25
